We go through 5 compounds from patent publication US8642651B2, “Methods and compositions for improved chromium complexes” (VDF Futureceuticals, Inc., priority 2004, dated 2014).

Assay [1] deals with Streptozocin-induced insulin deficient rats. Kind of assay: Fasted blood glucose in streptozocin-induced insulin deficient rats, chromium compounds in drinking water for four weeks. Format: in vivo. To be noted: for Fasted Blood Glucose (fold increase over four weeks): drinking water, about 42 μg/kg, four hrs fasting. As to the method: In vivo experiments gave much more dramatic differences, which are summarized in Table 1 below in which the increase in fasting blood glucose was measured after four weeks as compared to untreated animals: Streptozocin-induced insulin deficient rats were used to evaluate the insulin potentiating activity of several compounds. […] As consequence, these rats develop severe hyperglycemia. So far, certain known chromium compounds were known to potentiate action of insulin, however, the actual mechanism was not clearly understood. […] In our studies in vivo, chromium compounds were provided in drinking water for four weeks at a concentration of about 42 μg/kg. Vein blood was collected following four hrs fasting and used for fasted blood glucose level test. The study results for two tests are given below in Table 3 in which the increase in blood glucose in given as a fold increase over four weeks.

The next assay has as its system L6 muscle cells. The assay is described as follows: Total glucose uptake in L6 muscle cells (2-NBDG fluorescence). To be noted: 2 hrs treatment. It counts as cell-based. As to the method: Total glucose uptake was measure using fluorescent analog of glucose, 2-NBDG (2-(N-(7-nitrobenz-2-oxa-1,3-diazol-4-yl)amino)-2-deoxyglucose) from Molecular Probes Inc. L6 myoblastic cells were treated for 2 hrs with tested compounds in culture medium SkBM from Clonetics. After washing, cells were transferred to HBSA (Hepes-buffered Saline), pH 7.0 with 50 mcM of 2-NBDG without glucose. One minute later, cells were washed with ice-cold PBS, and fixed in −20 C 70% ethanol. Fluorescence was measured at 480/530 (excitation/emission).

Values joined by “and” are separate entries in the source; they are usually repeats but may differ in a detail not shown here. Equal entries are not always repeated.

Consider `O.O.O.O.O.O.[Cl][Cr]([Cl])[Cl]` [CrCl3, CrCl3 hexahydrate, reference compound], for which the “Fasted Blood Glucose (fold increase over four weeks)” value in assay [1] (STUDY 1) turned out to be 1.32 fold. The “Fold over Control, Average” value amounted to 1.55 fold in the assay with L6 muscle cells (Conc. 10 nM), 2.05 fold in the assay with L6 muscle cells (Conc. 100 nM) and 2.08 fold in the assay on L6 muscle cells (Conc. 1000 nM).
For the compound `CN(C)C(=N)N=C(N)N` [Metformin, reference compound], the “Fasted Blood Glucose (fold increase over four weeks)” value in assay [1] (STUDY 1) was 0.96 fold.
Consider Chromium-mono-Aminooxyacetate [CROA-1], for which the “Fold over Control (single values)” value with L6 muscle cells (Conc. 10 nM) is 1.41 fold and 1.66 fold and 2.10 fold; in the assay with L6 muscle cells (Conc. 100 nM), 2.12 fold and 2.16 fold and 2.80 fold; in the assay on L6 muscle cells (Conc. 1000 nM), 2.58 fold and 2.10 fold and 2.50 fold. The figures for the “Fold over Control, Average” value in the assay with L6 muscle cells (Conc. 10 nM), in the assay on L6 muscle cells (Conc. 100 nM) and with L6 muscle cells (Conc. 1000 nM) were 1.72 fold, 2.36 fold and 2.39 fold, respectively.
In the case of “chromium niacin [CrNiacin, reference compound]”, the “Fasted Blood Glucose (fold increase over four weeks)” value in assay [1] (STUDY 1) stood at 1.91 fold.
On to “chromium picolinate [Cr-picolinate, reference compound]”, for which the “Fasted Blood Glucose (fold increase over four weeks)” value worked out at 2.02 fold in assay [1] (STUDY 1) and 2.37 fold in assay [1] (STUDY 2). The “BLOOD GLUCOSE INCREASE (% of untreated)” value in assay [1] (diabetic rats, after four weeks, untreated = 100%) is given as 95.56%. Besides, the “BLOOD GLUCOSE INCREASE” value in assay [1] (diabetic rats, increase in fasting blood glucose after four weeks) was 2.37.
